Experiments:
S. pneumoniae D39V [1] = assay: Bliss interaction score (quartile over a dose matrix) (fitness difference); higher = more antagonism (negative = synergy)
In short: (§1)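 Growth was read as OD595 when cultures entered stationary phase, and each value was divided by the plate's robust no-drug mean and capped at 1. This normalised ratio is the fitness value, and fitness for each single drug came from the combination data. The Bliss score subtracts the expected fitness, taken as the product, from the observed fitness and is given as quartiles across technical, biological and donor/recipient replicates.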

S. aureus Newman [2] = assay: as above
In short: as §1

B. subtilis 168 [3] = assay: as above
In short: as §1

S. aureus DSM 20231 = assay: as above
In short: as §1

S. pneumoniae D39V [4] = assay: fitness (endpoint OD595 vs no drug) (fraction); higher = more growth
In short: (§2)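 Each well of a 384-well plate received 30 µl of culture at OD595 0.01, or 55 µl for S. pneumoniae. TSB, LB Lennox or CY served as media at 37 °C. OD595 was taken every 30 min for 14 h and corrected by subtracting the first reading. Fitness is the optical density at stationary-phase entry divided by the robust mean of no-drug controls, capped at 1.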

S. aureus Newman [5] = assay: as above
In short: as §2

B. subtilis 168 [6] = assay: as above; details: one replicate, main component drawn
In short: as §2
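Throughout, for Bliss interaction score (quartile over a dose matrix): first quartile when negative (synergy) and third quartile when positive (antagonism).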

O=C(O)c1cn(C2CC2)c2cc(N3CCNCC3)c(F)cc2c1=O [Ciprofloxacin] + Cn1nnc(-c2ccc(-c3ccc(N4C[C@H](CO)OC4=O)cc3F)cn2)n1 [Tedizolid]
Details | Bliss interaction score
B. subtilis 168 [3] | 0.26
S. aureus DSM 20231 | 0.0744
S. aureus Newman [2] | 0.0978
S. pneumoniae D39V [1] | -0.0691

fitness
Details | partner 0.03125 µg/mL | partner 0.0625 µg/mL | partner 0.125 µg/mL | partner 0.25 µg/mL | partner 0.5 µg/mL
S. aureus Newman [5], first compound 0.0375 µg/mL | – | – | 0.633 | – | –
S. aureus Newman [5], first compound 0.075 µg/mL | – | 0.56 | 0.592 | 0.423 | –
S. aureus Newman [5], first compound 0.15 µg/mL | – | – | – | 0.13 | –
S. pneumoniae D39V [4], first compound 0.125 µg/mL | 0.935 | 0.95 | 0.771 | 0.331 | 0.102
S. pneumoniae D39V [4], first compound 0.25 µg/mL | 0.913 | 0.945 | 0.703 | – | –
S. pneumoniae D39V [4], first compound 0.5 µg/mL | 0.828 | 0.889 | – | 0.292 | 0.0949

S. pneumoniae D39V [4], first compound 0.25 µg/mL, one replicate
Details | fitness
partner 0.25 µg/mL | 0.257
partner 0.5 µg/mL | 0.0574

COc1cccc2c1C(=O)c1c(O)c3c(c(O)c1C2=O)C[C@@](O)(C(=O)CO)C[C@@H]3O[C@H]1C[C@H](N)[C@H](O)[C@H](C)O1 [Doxorubicin] + C/C(=C\C(=O)OCCCCCCCCC(=O)O)C[C@@H]1OC[C@H](C[C@@H]2O[C@H]2[C@@H](C)[C@H](C)O)[C@@H](O)[C@H]1O [Pseudomonic acid]
Details | Bliss interaction score
B. subtilis 168 [3] | 0.12
S. aureus DSM 20231 | -0.0156
S. aureus Newman [2] | -0.0226
S. pneumoniae D39V [1] | -0.079

fitness, S. pneumoniae D39V [4]
Details | first compound 0.25 µg/mL | first compound 0.5 µg/mL | first compound 1 µg/mL
partner 0.03 µg/mL | 0.916 | 0.893 | 0.887
partner 0.06 µg/mL | 0.73 | 0.756 | 0.681
partner 0.12 µg/mL | 0.484 | 0.435 | 0.381

fitness, S. aureus Newman [5], one replicate
Details | first compound 0.625 µg/mL | first compound 1.25 µg/mL | first compound 2.5 µg/mL
partner 0.0313 µg/mL | 0.0603 | 0.0435 | 0.0003
partner 0.0625 µg/mL | 0.0314 | 0.0203 | 0.0075
partner 0.125 µg/mL | 0.0395 | 0.0395 | 0.0206

C[C@@H]1O[C@@H]1P(=O)(O)O [Fosfomycin] + C/C(=C\C(=O)OCCCCCCCCC(=O)O)C[C@@H]1OC[C@H](C[C@@H]2O[C@H]2[C@@H](C)[C@H](C)O)[C@@H](O)[C@H]1O [Pseudomonic acid]
Details | Bliss interaction score
B. subtilis 168 [3] | 0.0483
S. aureus DSM 20231 | 0.0164
S. aureus Newman [2] | -0.0091
S. pneumoniae D39V [1] | -0.0714

fitness, S. pneumoniae D39V [4]
Details | first compound 1.25 µg/mL | first compound 2.5 µg/mL | first compound 5 µg/mL
partner 0.03 µg/mL | 0.928 | 0.937 | 0.868
partner 0.06 µg/mL | 0.803 | 0.882 | –
partner 0.12 µg/mL | 0.531 | 0.454 | 0.201

fitness, S. aureus Newman [5], one replicate
Details | first compound 0.781 µg/mL | first compound 1.562 µg/mL | first compound 3.124 µg/mL
partner 0.0313 µg/mL | 0.0359 | 0.0031 | 0.0112
partner 0.0625 µg/mL | 0.0247 | 0.0394 | 0.0147
partner 0.125 µg/mL | 0.0275 | 0.0351 | 0.0342

Cc1ncc([N+](=O)[O-])n1CCO [Metronidazole] + C/C(=C\C(=O)OCCCCCCCCC(=O)O)C[C@@H]1OC[C@H](C[C@@H]2O[C@H]2[C@@H](C)[C@H](C)O)[C@@H](O)[C@H]1O [Pseudomonic acid]
Details | Bliss interaction score
B. subtilis 168 [3] | -0.0197
S. aureus DSM 20231 | 0.0111
S. aureus Newman [2] | 0.0128
S. pneumoniae D39V [1] | 0.0684

fitness, S. pneumoniae D39V [4]
Details | first compound 1.073 µg/mL | first compound 1.25 µg/mL | first compound 2.145 µg/mL | first compound 2.5 µg/mL | first compound 4.29 µg/mL | first compound 5 µg/mL
partner 0.03 µg/mL | 0.903 | 0.932 | 0.859 | 0.96 | 0.877 | 0.92
partner 0.06 µg/mL | – | 0.816 | – | 0.829 | 0.81 | 0.816
partner 0.12 µg/mL | 0.529 | 0.57 | 0.632 | 0.596 | 0.575 | 0.588

fitness, S. aureus Newman [5], one replicate
Details | first compound 0.625 µg/mL | first compound 1.25 µg/mL | first compound 2.5 µg/mL
partner 0.0313 µg/mL | 0.0517 | 0.0718 | 0.0759
partner 0.0625 µg/mL | 0.0386 | 0.0347 | 0.0304
partner 0.125 µg/mL | 0.0386 | 0.0514 | 0.0492

Cc1ncc([N+](=O)[O-])n1CCO [Metronidazole] + CCC(C)C1C(=O)NC(=C)C(=O)NC(C(=O)NC(CSCC(C(=O)N1)NC(=O)/C(=C/C)/NC(=O)C(C(C)CC)N)C(=O)NC2C(SCC(NC(=O)CNC(=O)C3CCCN3C2=O)C(=O)NC(CCCCN)C(=O)NC4C(SCC(NC(=O)CNC(=O)C(NC(=O)C(NC(=O)C(NC(=O)CNC4=O)C)CC(C)C)CCSC)C(=O)NC(CC(=O)N)C(=O)NC(CCSC)C(=O)NC(CCCCN)C(=O)NC5C(SCC6C(=O)NC(C(=O)NC(CSC(C(C(=O)N6)NC(=O)C(NC5=O)C)C)C(=O)NC(CO)C(=O)NC(C(C)CC)C(=O)NC(CC7=CN=CN7)C(=O)NC(C(C)C)C(=O)NC(=C)C(=O)NC(CCCCN)C(=O)O)CC8=CN=CN8)C)C)C)CC(C)C [Nisin]
main component drawn
Details | Bliss interaction score
B. subtilis 168 [3] | 0.0914
S. aureus DSM 20231 | 0.153
S. aureus Newman [2] | 0.0893
S. pneumoniae D39V [1] | 0.0647

S. pneumoniae D39V [4], main component drawn
Details | fitness
first compound 1.073 µg/mL, partner 3.2 µg/mL | 0.0352
first compound 1.073 µg/mL, partner 6.4 µg/mL | 0.0007
first compound 1.25 µg/mL, partner 0.4275 µg/mL | ≥ 1
first compound 1.25 µg/mL, partner 0.855 µg/mL | ≥ 1
first compound 1.25 µg/mL, partner 1.71 µg/mL | 0.127
first compound 2.145 µg/mL, partner 1.6 µg/mL | 0.809
first compound 2.145 µg/mL, partner 3.2 µg/mL | 0.0201
first compound 2.145 µg/mL, partner 6.4 µg/mL | 0
first compound 2.5 µg/mL, partner 0.4275 µg/mL | ≥ 1
first compound 2.5 µg/mL, partner 0.855 µg/mL | ≥ 1
first compound 2.5 µg/mL, partner 1.71 µg/mL | 0.121
first compound 4.29 µg/mL, partner 1.6 µg/mL | 0.747
first compound 4.29 µg/mL, partner 3.2 µg/mL | 0.0174
first compound 4.29 µg/mL, partner 6.4 µg/mL | 0
first compound 5 µg/mL, partner 0.4275 µg/mL | 0.968
first compound 5 µg/mL, partner 0.855 µg/mL | ≥ 1
first compound 5 µg/mL, partner 1.71 µg/mL | 0.1

fitness, B. subtilis 168 [6]
Details | first compound 0.625 µg/mL | first compound 1.25 µg/mL | first compound 2.5 µg/mL
partner 0.5 µg/mL | 0.831 | 0.806 | 0.795
partner 1 µg/mL | 0.838 | 0.797 | 0.803
partner 1.25 µg/mL | 0.909 | 0.939 | 0.91
partner 1.6 µg/mL | 0.796 | 0.809 | 0.755
partner 2 µg/mL | 0.571 | 0.528 | 0.537
partner 2.5 µg/mL | 0.366 | 0.666 | 0.616
partner 3.2 µg/mL | 0.0225 | 0.03 | 0.0513
partner 4 µg/mL | 0.61 | 0.534 | 0.333
partner 5 µg/mL | 0.0544 | 0.0891 | 0.149
partner 6.4 µg/mL | 0.0311 | 0.0509 | 0.0479
partner 8 µg/mL | 0.0261 | 0.0271 | 0.0234
partner 16 µg/mL | 0.0228 | 0.0235 | 0.015
